From patent publication US20230181700A1 (priority 2021, published 2023)

System: Vero cells
Type: cell-based
Conditions: read-out: IC50 of toxicity

In the case of `C[C@@H]1C[C@@H]([C@H](O)CC2CC(=O)NC(=O)C2)C(=O)[C@@H](C)C1` [cyclohexamide], the IC50 is reported as 200 nM.
